Source: the supplement of paper PMC8967900

Experiments:
Assay in all cases: selective drug sensitivity score (sDSS, relative to normal bone marrow) (sDSS (score)); higher = more potent and effective on the cell line relative to normal bone marrow cells
Conditions in all cases: 72 h
[1] = tested on: 380
[2] = tested on: COG-LL-332h
[3] = tested on: CCRF-CEM
[4] = tested on: ALL-PO
[5] = tested on: COG-LL-402h
[6] = tested on: RCH-ACV
[7] = tested on: LC4-1
[8] = tested on: MOLT-14
[9] = tested on: ALL-SIL
[10] = tested on: MHH-CALL-4
[11] = tested on: HPB-ALL
[12] = tested on: JURKAT
[13] = tested on: P30-OHKUBO
[14] = tested on: MN-60
[15] = tested on: SEM cells
[16] = tested on: TMD5
[17] = tested on: NALM-6
[18] = tested on: 697
[19] = tested on: COG-LL-319h
[20] = tested on: MHH-CALL-2
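Note: ALL cell lines in 384-well plates, five doses spanning 10,000-fold, each plate scaled between vehicle and 100 µmol/L benzalkonium chloride controls, sDSS an adapted area-under-curve metric.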

Structure (SMILES)	selective drug sensitivity score [1]	selective drug sensitivity score [2]	selective drug sensitivity score [3]	selective drug sensitivity score [4]	selective drug sensitivity score [5]	selective drug sensitivity score [6]	selective drug sensitivity score [7]	selective drug sensitivity score [8]	selective drug sensitivity score [9]	selective drug sensitivity score [10]	selective drug sensitivity score [11]	selective drug sensitivity score [12]	selective drug sensitivity score [13]	selective drug sensitivity score [14]	selective drug sensitivity score [15]	selective drug sensitivity score [16]	selective drug sensitivity score [17]	selective drug sensitivity score [18]	selective drug sensitivity score [19]	selective drug sensitivity score [20]
CO[C@H]1C[C@@H]2CC[C@@H](C)[C@@](O)(O2)C(=O)C(=O)N2CCCC[C@H]2C(=O)O[C@H]([C@H](C)C[C@@H]2CC[C@@H](O)[C@H](OC)C2)CC(=O)[C@H](C)/C=C(\C)[C@@H](O)[C@@H](OC)C(=O)[C@H](C)C[C@H](C)/C=C/C=C/C=C/1C [Sirolimus] (top concentration 100 nM)	17.4	3.04	3.34	0.14	0.04	11.1	1.74	-2.96	-0.86	-0.76	-2.46	-1.96	1.34	0.44	1.34	-3.56	-2.86	6.34	5.94	0.84
Cn1ncc(Cl)c1-c1cc(C(=O)N[C@H](CN)Cc2ccc(F)c(F)c2)oc1Cl [Uprosertib] (top concentration 10000 nM)	0.6	5.7	10.4	9	1.7	8.3	-1.2	1.1	1.5	4.6	-1.4	5.9	6.5	-1.4	4.5	1.2	2.9	0.3	5.3	2.1
CC(C)(C)Cn1c(N)nc2ccc(-c3[nH]c(C(C)(C)C)nc3-c3ccc(F)cc3)nc21 [Ralimetinib] (top concentration 10000 nM)	-0.84	2.56	2.26	8.56	2.26	11.5	4.76	6.96	3.36	-0.84	3.66	1.76	4.66	-0.14	1.76	-0.74	-0.24	5.66	4.06	1.46
NC(=O)N1CCC(CC(=O)N2CCC([C@H]3c4ncc(Br)cc4CCc4cc(Cl)cc(Br)c43)CC2)CC1 [Lonafarnib] (top concentration 100000 nM)	-1.06	10.1	9.74	4.64	3.64	8.64	3.44	14.1	9.34	7.44	9.84	5.74	7.84	2.24	14.1	-3.36	6.24	7.54	7.04	9.24
CCN(CC)CCNC(=O)c1c(C)[nH]c(/C=C2\C(=O)Nc3ccc(-c4csc(-c5ccccc5)n4)cc32)c1C [Amcasertib] (top concentration 10000 nM)	7.8	7.2	6.7	6.7	-3.2	3.3	0.9	3.4	3.6	2.2	4.3	-2.2	3.9	-0.2	3	-1.7	0	2.4	-0.1	4.9
CC(C)[C@H](C(=O)Nc1ccc(C(=O)NO)cc1)c1ccccc1 [AR-42] (top concentration 10000 nM)	10.1	4.68	6.68	10.7	10.8	13.9	6.88	8.48	10.2	8.08	9.78	5.28	5.18	1.48	9.08	5.28	4.48	9.58	10.8	11
CCNC(=O)C[C@@H]1N=C(c2ccc(Cl)cc2)c2cc(OC)ccc2-n2c(C)nnc21 [Molibresib] (top concentration 10000 nM)	-5.5	-2.4	0.8	3.6	5.3	7.7	3.7	-2.1	-3.3	6.9	0.8	-0.6	6.4	6.3	7.7	5.2	3.2	7.4	6.9	8.4
O=C(Nc1cccc(NC(=O)c2cccc(O)c2O)c1)c1cccc(O)c1O [MST-312] (top concentration 10000 nM)	6	13.1	7.1	5.6	8.6	0.7	8.1	5.8	9.6	1.8	8.7	12.5	8.1	9.8	0.6	-3	9.5	-1.2	12.8	10.8
CC(=O)O[C@]1(C(C)=O)CC[C@H]2[C@@H]3C=C(C)C4=CC(=O)CC[C@]4(C)[C@H]3CC[C@@]21C [Megestrol_acetate] (top concentration 10000 nM)	7.02	-0.58	-0.28	17.9	-0.38	4.32	-0.38	0.22	-0.48	7.52	-0.58	1.02	4.42	-0.58	3.42	7.82	1.72	2.52	0.42	14.5
